Assays:
[1] = target: His6-avi-MBP-tagged POLE2; experiment: Single-point nHU-MS with recombinant His6-avi-MBP-POLE2 bait, Jurkat extract; format: binding, human; settings: significant apparent affinity of endogenous prey protein for POLE2 bait; single-point nHU-MS; Figure S11
Excerpt: So far, our study only focused on a few hand-picked NPF motifs and studied them as short synthetic peptides. However, many other proteins may be present in the proteome that could bind to POLE2 and their putative NPF motifs are embedded in their natural structures that can greatly affect their binding properties. To investigate interactions between POLE2 and intact, full length proteins proteome-wide, we used nHU-MS experiments with recombinant His6-avi-MBP-tagged POLE2 as bait and purified His6-avi-MBP as a control. Even though we are aware that this recombinant POLE2 may bind to NPF motifs with a somewhat altered affinity, we assumed that this would affect all NPF motif-mediated interactions equally, allowing an unbiased affinity ranking of all identified partners. Single point nHU measurements were performed at 26 μM POLE2 concentration and the recovered supernatant was measured by label free proteomic MS measurements (Fig. 3A, Supplementary Figs. 8A, 9, Supplementary Data 1).
Single-point nHU experiments with protein baits were carried out nearly identically with two key modifications. First, the resin saturation step was carried out by mixing 50 μl streptavidin resin with 0.5−1 ml 50 μM biotinylated protein solution and the mixture was incubated for 1.5 h at 4 °C with constant agitation. Second, instead of using estimated bait concentrations, we measured it experimentally. An extra aliquot of resin stock was prepared alongside the nHU samples that were identically processed that were used to eluate the immobilized proteins under harsh conditions, in order to experimentally quantify the Cbait by using densitometry of Coomassie stained SDS-PAGE that included a protein calibration series. For this, 50 μl bait-saturated resin aliquots were mixed with 200 μl 4x Laemmli Sample Buffer (120 mM Tris-HCl pH 7, 8% SDS, 100 mM DTT, 32% glycerol, 0.004% bromphenol blue, 1% β-mercaptoethanol), instead of cell extract. After 15 min incubation at 95 °C, these samples were analyzed by SDS-PAGE using protein calibration standard, made from recombinant MBP. Densitometry was carried out after Coomassie staining on raw Tif images by using Fiji ImageJ 1.53c and experimental bait concentration were determined by adjusting for molecular weight differences between MBP and MBP-POLE2 constructs.
Samples were digested overnight at 37 °C.

[2] = system: endogenous proteins of Jurkat extract; experiment: Single-point nHU-MS with biotinylated NPF motif peptide baits, proteome-wide; format: binding, human; settings: FigureS2 Volcano; prey WASHC3
Excerpt: To identify the partners of NPF motifs, we used the native holdup (nHU) assay that was recently developed by our team (Fig. 1B). The holdup approach has been extensively used to determine equilibrium dissociation constants of transient interactions mediated by PDZ and SH3 domains, 14-3-3, and human papilloma virus E6 proteins, and even nucleic acid-protein interactions[7],[30]–[35]. In the nHU experiments, a purified bait molecule, or a control compound, is immobilized on a resin at high concentration (typically 10 μM, or higher) and these resin stocks are subsequently mixed with dilute cell extracts. […] This liquid phase contains the unbound prey molecules at near binding equilibrium that can be quantified using selective and quantitative analytical approaches, such as mass spectrometry. Therefore, proteins that interact with the bait molecule will appear to be depleted in the solvent phase and by measuring its relative concentration compared to the control nHU experiment, the degree of binding (θ) can be determined that can be converted to apparent steady-state dissociation constants, according to:1 θ=1−Ifree/Itot=Cbait/Cbait+Kapp where Itot and Ifree are the measured total and bait-depleted equilibrium mass spectrometry total ion intensities of prey proteins, Cbait is the bait molecule concentration and Kapp is the apparent dissociation constant. […]

EHD4 = target: T1, EHD4 (Homo sapiens, UniProt Q9H223); experiment: nHU-MS peptide bait, prey EHD4; settings: FigureS2 Volcano; prey EHD4
T1 sequence (Q9H223 1-541): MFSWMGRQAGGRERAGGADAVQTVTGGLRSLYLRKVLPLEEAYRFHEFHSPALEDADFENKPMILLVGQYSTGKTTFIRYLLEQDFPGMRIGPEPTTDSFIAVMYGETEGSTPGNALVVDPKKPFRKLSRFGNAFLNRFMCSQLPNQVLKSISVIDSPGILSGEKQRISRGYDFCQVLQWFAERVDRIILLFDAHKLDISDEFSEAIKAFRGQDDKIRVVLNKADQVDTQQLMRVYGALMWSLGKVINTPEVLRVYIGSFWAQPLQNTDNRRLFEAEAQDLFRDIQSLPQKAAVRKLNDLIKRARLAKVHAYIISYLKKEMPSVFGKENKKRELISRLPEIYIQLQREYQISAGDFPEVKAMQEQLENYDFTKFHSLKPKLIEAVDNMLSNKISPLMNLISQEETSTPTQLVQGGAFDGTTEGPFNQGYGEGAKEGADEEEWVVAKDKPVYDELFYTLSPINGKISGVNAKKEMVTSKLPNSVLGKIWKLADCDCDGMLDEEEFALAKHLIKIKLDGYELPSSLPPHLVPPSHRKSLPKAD

GYPC = target: T2, GYPC (Homo sapiens, UniProt P04921); experiment: nHU-MS peptide bait, prey GYPC; settings: FigureS2 Volcano; prey GYPC
T2 sequence (P04921 1-128): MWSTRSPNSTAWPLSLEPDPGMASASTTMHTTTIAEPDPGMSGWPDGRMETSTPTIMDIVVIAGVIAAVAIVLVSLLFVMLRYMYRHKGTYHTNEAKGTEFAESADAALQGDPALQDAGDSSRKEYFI

UBE2N = target: T3, UBE2N (Homo sapiens, UniProt P61088); experiment: nHU-MS peptide bait, prey UBE2N; settings: FigureS2 Volcano; prey UBE2N
T3 sequence (P61088 1-152): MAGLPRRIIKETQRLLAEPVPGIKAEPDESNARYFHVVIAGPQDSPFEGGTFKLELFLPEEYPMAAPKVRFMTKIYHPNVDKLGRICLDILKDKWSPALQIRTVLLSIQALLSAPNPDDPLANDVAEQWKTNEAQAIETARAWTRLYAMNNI

## NSVD [WDHD1]
[1]
  pKapp_sign: 5.025
[2]
  log2FC: -0.6642
EHD4
  -log10P: 4.524
  log2FC: -0.6115
GYPC
  -log10P: 4.7052
  log2FC: -0.6216
UBE2N
  -log10P: 4.615
  log2FC: -0.5674

— publication PMC12808100, “The non-catalytic DNA polymerase ε subunit is an NPF motif recognition protein” (Nature Communications, 2025)
